These results are taken from US11286288B2, “Pharmaceutical compound” (VALLAURIX PTE. LTD., priority 2015, dated 2022).

Format in all cases: cell-based
The target of experiment [1] is T1, MC1R (Homo sapiens, UniProt Q01726).
T1 construct: human melanocyte cultures, coded 1750 and 1753, that were derived from 2 different donors expressing functional MC1R; endogenous in cells; host or cells: primary human melanocyte cultures 1750 and 1753 (two donors)
Put plainly: cAMP radioimmunoassay in human melanocyte culture 1753. As to the method:
Compounds 1, 2, 3 and 4 were tested in various separate tests and using 2 different human melanocyte cultures, coded 1750 and 1753, that were derived from 2 different donors expressing functional MC1R. The melanocytes were plated at a density of 0.3*10^6 cells/well. After 48 hours, the melanocytes were treated with the different compound concentrations for 1 hour. Controls without compound were included in all experiments. […] The reaction was stopped by addition of 50 μl N HCl and the supernatant in each well was used to measure cAMP using a radioimmunoassay as described by Suzuki 1996 (Suzuki I, Cone R D, Im S, Nordlund ii, Abdel-Malek Z: “Binding of melanotropic hormones to the MC1 receptor on human melanocytes stimulates proliferation and melanogenesis”. Endocrinology 137: 1627-1633, 1996). Duplicate samples from each well were assayed with triplicate wells included in each compound group. The results from different tests cannot be compared due to differences in melanocyte cultures and to different passage number. The mean of 6 cAMP measurements per group was expressed as % of the control group. Statistical analysis was carried out using ANOVA followed by Newman Kuels test. In some cases, unpaired t-test was used.

The test system of a further experiment is tyrosinase. Put plainly: Tyrosinase activity (3H-tyrosine) in human melanocyte culture 1750. The note with it: Test 4, melanocytes 1750, six days treatment; concentration not given. As for the experimental part:
Compounds 1, 2, 3 and 4 were tested in various separate tests and using 2 different human melanocyte cultures, coded 1750 and 1753, that were derived from 2 different donors expressing functional MC1R. The melanocytes were plated at a density of 0.3*10^6 cells onto 60 mm dishes (triplicate dishes/group). After 48 hours, the melanocytes were treated every other day for a total of six days with different doses of each compound. Controls without compound were included in all experiments. In some experiments reference compound NDP-MSH was included. On treatment day 5, ^3H-labeled tyrosine, the substrate for tyrosinase, was added and 24 hours later, the supernatant was saved to be assayed for tyrosinase activity as described by Suzuki et al (see example 3). Duplicate samples from each were assayed, with triplicate dishes included in each group. Cell number in each dish was counted, and tyrosinase activity was expressed as dpm/10^6 cells and as % of the control. Tests results between separate tests cannot be compared due to differences in melanocyte cultures and to different passage number. Statistical analysis was carried out using ANOVA followed by Newman Kuels test.
It will be understood that this tyrosinase activation test relates to a late event after MC1R activation, compared to the earlier secondary messenger effect of the above cAMP test. As pointed out above, activity of tyrosinase requires days of treatment. Following are the results comparing the compounds in the test indicated: […]

Experiment [2] concerns the target T1, MC1R. Kind of experiment: cAMP radioimmunoassay in human melanocyte culture 1750. As to the method: Compounds 1, 2, 3 and 4 were tested in various separate tests and using 2 different human melanocyte cultures, coded 1750 and 1753, that were derived from 2 different donors expressing functional MC1R. The melanocytes were plated at a density of 0.3*10^6 cells/well. After 48 hours, the melanocytes were treated with the different compound concentrations for 1 hour. Controls without compound were included in all experiments. In some experiments reference compound NDP-MSH was included. The reaction was stopped by addition of 50 μl N HCl and the supernatant in each well was used to measure cAMP using a radioimmunoassay as described by Suzuki 1996 (Suzuki I, Cone R D, Im S, Nordlund ii, Abdel-Malek Z: “Binding of melanotropic hormones to the MC1 receptor on human melanocytes stimulates proliferation and melanogenesis”. Endocrinology 137: 1627-1633, 1996). Duplicate samples from each well were assayed with triplicate wells included in each compound group. The results from different tests cannot be compared due to differences in melanocyte cultures and to different passage number. The mean of 6 cAMP measurements per group was expressed as % of the control group. Statistical analysis was carried out using ANOVA followed by Newman Kuels test. In some cases, unpaired t-test was used.

T1 sequence (Q01726 whole entry): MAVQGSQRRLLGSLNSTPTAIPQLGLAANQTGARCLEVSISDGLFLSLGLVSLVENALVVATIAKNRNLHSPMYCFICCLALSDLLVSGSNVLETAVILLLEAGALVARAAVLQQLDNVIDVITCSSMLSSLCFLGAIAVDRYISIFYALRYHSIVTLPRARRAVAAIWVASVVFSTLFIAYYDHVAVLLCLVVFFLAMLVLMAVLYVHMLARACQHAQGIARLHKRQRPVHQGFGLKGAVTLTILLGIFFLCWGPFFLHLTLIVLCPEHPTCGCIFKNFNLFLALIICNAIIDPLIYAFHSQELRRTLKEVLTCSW

“(C2H5)3N—CH2—CO-Nle-Glu-His-D-Phe-Arg-Trp-NH2 [Compound 1]”: the “cAMP, highest overall efficacy value, % of the control group” value on MC1R [1] (Test 2, melanocytes 1753, at 10^-7 M, 1 hour treatment, p<0.05) was 431%. Besides, in the experiment on tyrosinase, the “tyrosinase activity, efficacy, % of the control” value (“tyrosinase activity, efficacy, %” below) came to 178%.

On to “(C2H5)3N—CH2—CO-Nle-Glu-His-D-Phe-homoArg-Trp-NH2 [Compound 3]”, for which the “cAMP, highest overall efficacy value, % of the control group” value on MC1R [2] (Test 1, melanocytes 1750, at 10^-7 M, 1 hour treatment, p<0.05) is on record as 327%. Also, at MC1R [1] (Test 2, melanocytes 1753, p<0.05 vs control), the “dose at which maximum effect on cAMP was achieved” value was 10^−9 M.

Turning to “(CH3)3N—(CH2)3—CO-Nle-Glu-His-D-Phe-Arg-Trp-NH2 [Compound 2]”, the “dose at which maximum effect on cAMP (vs control) was achieved” value on MC1R [2] (Test 1, melanocytes 1750, 1 hour treatment, p<0.05 vs control) is recorded as 10^−8 M. The “lowest dose showing cAMP efficacy statistically different from control” value on MC1R [1] (Test 2, melanocytes 1753, p<0.05) was 10^−11 M. The “tyrosinase activity, efficacy, %” value with tyrosinase is 171%.

“(CH3)3N—(CH2)3—CO-Nle-Glu-His-D-Phe-homoArg-Trp-NH2 [Compound 4]”: the “cAMP, highest efficacy, % of the control group” value on MC1R [1] (Test 3, melanocytes 1753, at 10^-7 M, 1 hour treatment, p<0.05) turned out to be 253%.

NDP-MSH [reference compound]: the “tyrosinase activity, efficacy, %” value with tyrosinase is reported as 166%.
